Data taken from ChEMBL document CHEMBL1201862, “PubChem BioAssay data set” (2004).
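Five concentrations, 48 hours, 96-well plates. GI50 marks 50% less growth.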 Calls of active or inactive are those of the source. Cut-off read from the data, not from the text of the source: active = GI50 up to about 1.1 µM and inactive = higher.

Columns and labels:
Assay in all cases: NCI-60 cell line screen, 48 h
ACHN = test system: ACHN
CAKI-1 = test system: CAKI-1
EKVX = test system: EKVX
HCT-116 = test system: HCT-116
HOP-62 = test system: HOP-62
HT-29 = test system: HT-29
M14 = test system: M14
MOLT-4 = test system: MOLT-4
Malme-3M = test system: Malme-3M
OVCAR-8 = test system: OVCAR-8
PC-3 = test system: PC-3
RPMI-8226 = test system: RPMI-8226
RXF 393 = test system: RXF 393
SN12C = test system: SN12C
SNB-19 = test system: SNB-19
SW-620 = test system: SW-620
TK-10 = test system: TK-10
U-251 = test system: U-251
UACC-257 = test system: UACC-257
UO-31 = test system: UO-31

Structure (SMILES) | GI50 (ACHN) | GI50 (CAKI-1) | GI50 (EKVX) | GI50 (HCT-116) | GI50 (HOP-62) | GI50 (HT-29) | GI50 (M14) | GI50 (MOLT-4) | GI50 (Malme-3M) | GI50 (OVCAR-8) | GI50 (PC-3) | GI50 (RPMI-8226) | GI50 (RXF 393) | GI50 (SN12C) | GI50 (SNB-19) | GI50 (SW-620) | GI50 (TK-10) | GI50 (U-251) | GI50 (UACC-257) | GI50 (UO-31)
CN(C)c1ccc(/C=C/c2cc[n+](C)c3ccccc23)cc1 | 6.43 µM (inactive) | 2.79 µM (inactive) | 34.7 µM (inactive) | 1.58 µM (inactive) | 4.63 µM (inactive) | 2.04 µM (inactive) | 3.44 µM (inactive) | 3.4 µM (inactive) | 4.51 µM (inactive) | 1.53 µM (inactive) | 1.73 µM (inactive) | 2.95 µM (inactive) | 7.1 µM (inactive) | 3.44 µM (inactive) | 2.34 µM (inactive) | 2.44 µM (inactive) | 3.71 µM (inactive) | 2.75 µM (inactive) | 1.2 µM (inactive) | 23.8 µM (inactive)
O=CN1CCN(CC(O)CN2CCCCC2)CC1 (stereo not given) | > 100 µM (inactive) | > 100 µM (inactive) | > 100 µM (inactive) | > 100 µM (inactive) | > 100 µM (inactive) | > 100 µM (inactive) | > 100 µM (inactive) | > 100 µM (inactive) | > 100 µM (inactive) | > 100 µM (inactive) | > 100 µM (inactive) | > 100 µM (inactive) | > 100 µM (inactive) | > 100 µM (inactive) | > 100 µM (inactive) | > 100 µM (inactive) | > 100 µM (inactive) | > 100 µM (inactive) | > 100 µM (inactive) | > 100 µM (inactive)
Cc1ccc2c(=O)cc(-c3ccc(-c4ccccc4)s3)[nH]c2n1 | > 100 µM (inactive) | 45 µM (inactive) | 27.2 µM (inactive) | 25.6 µM (inactive) | 30.6 µM (inactive) | > 100 µM (inactive) | > 100 µM (inactive) | 4.18 µM (inactive) | > 42.9 µM (inactive) | > 58.3 µM (inactive) | 6.03 µM (inactive) | 4.53 µM (inactive) | > 59.8 µM (inactive) | 58.6 µM (inactive) | 70.1 µM (inactive) | > 31.5 µM (inactive) | > 48.3 µM (inactive) | 16.4 µM (inactive) | 8.47 µM (inactive) | 0.0305 µM (active)
Cc1cc(-c2nc3ccc(F)cc3s2)ccc1NC(=O)C(N)CCCCN (stereo not given) | 12.7 µM (inactive) | 9.64 µM (inactive) | 12.6 µM (inactive) | 3.71 µM (inactive) | 3.22 µM (inactive) | 3.54 µM (inactive) | 3.29 µM (inactive) | 2.34 µM (inactive) | 18.2 µM (inactive) | 5.97 µM (inactive) | 9.53 µM (inactive) | 3.31 µM (inactive) | 10.4 µM (inactive) | 7.76 µM (inactive) | 10.2 µM (inactive) | 2.9 µM (inactive) | 0.0731 µM (active) | 2.11 µM (inactive) | 12.8 µM (inactive) | 2.69 µM (inactive)
CCOC(=O)C(CCSC)(CCSC)C(=O)OCC | > 100 µM (inactive) | > 100 µM (inactive) | > 100 µM (inactive) | > 100 µM (inactive) | > 100 µM (inactive) | > 100 µM (inactive) | > 100 µM (inactive) | > 100 µM (inactive) | > 100 µM (inactive) | > 100 µM (inactive) | > 100 µM (inactive) | > 100 µM (inactive) | > 100 µM (inactive) | > 100 µM (inactive) | > 100 µM (inactive) | > 100 µM (inactive) | > 100 µM (inactive) | > 100 µM (inactive) | > 100 µM (inactive) | > 100 µM (inactive)
CC(C)Oc1cccc(N2C(NCCc3c[nH]c4ccccc34)=Nc3ccncc3S2(=O)=O)c1 | 35.5 µM (inactive) | 42.1 µM (inactive) | 72.8 µM (inactive) | 6.71 µM (inactive) | > 100 µM (inactive) | 5.01 µM (inactive) | 10.4 µM (inactive) | 3.94 µM (inactive) | 32.4 µM (inactive) | 57.4 µM (inactive) | 6.4 µM (inactive) | 5.51 µM (inactive) | 3.46 µM (inactive) | > 100 µM (inactive) | > 100 µM (inactive) | 8.36 µM (inactive) | 19.2 µM (inactive) | 17.9 µM (inactive) | 9.53 µM (inactive) | 81.8 µM (inactive)
COCn1cnc2c(=O)n(-c3ccc(C)cc3)c(=S)n(-c3ccc(C)cc3)c21 | > 100 µM (inactive) | > 100 µM (inactive) | > 100 µM (inactive) | > 100 µM (inactive) | > 100 µM (inactive) | > 100 µM (inactive) | > 100 µM (inactive) | > 100 µM (inactive) | > 100 µM (inactive) | > 100 µM (inactive) | > 100 µM (inactive) | > 100 µM (inactive) | 78.3 µM (inactive) | > 100 µM (inactive) | > 100 µM (inactive) | > 100 µM (inactive) | > 100 µM (inactive) | > 100 µM (inactive) | > 100 µM (inactive) | 38.6 µM (inactive)
CC1(C)CNC(c2ccc3c(c2)Cc2cc(C4=NC(C)(C)CN4)ccc2-3)=N1 | > 100 µM (inactive) | > 100 µM (inactive) | 60 µM (inactive) | 32.8 µM (inactive) | 33.5 µM (inactive) | 32.1 µM (inactive) | 45.1 µM (inactive) | 31.9 µM (inactive) | 24.7 µM (inactive) | 37 µM (inactive) | 39.8 µM (inactive) | 25.2 µM (inactive) | > 100 µM (inactive) | 36.6 µM (inactive) | 35.1 µM (inactive) | 34.5 µM (inactive) | > 100 µM (inactive) | 22 µM (inactive) | 31 µM (inactive) | > 100 µM (inactive)
O=C1CSCC(=O)Nc2ccccc2N1 | > 100 µM (inactive) | > 100 µM (inactive) | > 100 µM (inactive) | > 100 µM (inactive) | > 100 µM (inactive) | > 100 µM (inactive) | > 100 µM (inactive) | > 100 µM (inactive) | > 100 µM (inactive) | > 100 µM (inactive) | > 100 µM (inactive) | > 100 µM (inactive) | > 100 µM (inactive) | > 100 µM (inactive) | > 100 µM (inactive) | > 100 µM (inactive) | > 100 µM (inactive) | > 100 µM (inactive) | > 100 µM (inactive) | > 100 µM (inactive)
COC(=O)[C@@]12CSC[C@]1(C(=O)OC)N[C@@H](c1ccccc1O)C2 | > 100 µM (inactive) | > 100 µM (inactive) | > 100 µM (inactive) | > 100 µM (inactive) | > 100 µM (inactive) | > 100 µM (inactive) | > 100 µM (inactive) | > 100 µM (inactive) | > 100 µM (inactive) | > 100 µM (inactive) | > 100 µM (inactive) | > 100 µM (inactive) | > 100 µM (inactive) | > 100 µM (inactive) | > 100 µM (inactive) | > 100 µM (inactive) | > 100 µM (inactive) | > 100 µM (inactive) | > 100 µM (inactive) | > 100 µM (inactive)
CCOC(=O)CNC1=Nc2ccccc2C(=O)N2CSCC12 (stereo not given) | > 100 µM (inactive) | > 100 µM (inactive) | > 100 µM (inactive) | > 100 µM (inactive) | > 100 µM (inactive) | > 100 µM (inactive) | > 100 µM (inactive) | > 100 µM (inactive) | > 100 µM (inactive) | > 100 µM (inactive) | > 100 µM (inactive) | > 100 µM (inactive) | > 100 µM (inactive) | > 100 µM (inactive) | > 100 µM (inactive) | > 100 µM (inactive) | > 100 µM (inactive) | > 100 µM (inactive) | > 100 µM (inactive) | > 100 µM (inactive)
O=[N+]([O-])c1cc(/N=N/c2c(O)ccc3cc(S(=O)(=O)O)ccc23)c(O)c([N+](=O)[O-])c1 | > 100 µM (inactive) | > 100 µM (inactive) | > 100 µM (inactive) | > 100 µM (inactive) | > 100 µM (inactive) | 50.2 µM (inactive) | > 100 µM (inactive) | 31.5 µM (inactive) | > 100 µM (inactive) | 35.7 µM (inactive) | 90.6 µM (inactive) | > 100 µM (inactive) | > 100 µM (inactive) | > 100 µM (inactive) | > 100 µM (inactive) | 93.1 µM (inactive) | > 100 µM (inactive) | > 100 µM (inactive) | > 100 µM (inactive) | 39.4 µM (inactive)
COC(CCC[N+](C)(C)C)CC[N+](C)(C)C (stereo not given) | > 100 µM (inactive) | > 100 µM (inactive) | > 100 µM (inactive) | > 100 µM (inactive) | > 100 µM (inactive) | > 100 µM (inactive) | > 100 µM (inactive) | > 100 µM (inactive) | > 100 µM (inactive) | > 100 µM (inactive) | > 100 µM (inactive) | > 100 µM (inactive) | > 100 µM (inactive) | > 100 µM (inactive) | > 100 µM (inactive) | > 100 µM (inactive) | > 100 µM (inactive) | > 100 µM (inactive) | > 100 µM (inactive) | > 100 µM (inactive)
CN(C)CCN1Nc2c3ccccc3nc3c(C(=O)NCCCN(C)CCCNC(=O)c4ccc5c6c(c7ccccc7nc46)NN5CCN(C)C)ccc1c23 | < 0.01 µM (active) | 0.199 µM (active) | 0.0504 µM (active) | < 0.01 µM (active) | 0.0104 µM (active) | < 0.01 µM (active) | 0.0353 µM (active) | < 0.01 µM (active) | < 0.01 µM (active) | < 0.01 µM (active) | < 0.01 µM (active) | < 0.01 µM (active) | 0.15 µM (active) | < 0.01 µM (active) | < 0.01 µM (active) | < 0.01 µM (active) | 0.132 µM (active) | < 0.01 µM (active) | 0.0224 µM (active) | 0.0692 µM (active)
